From patent US7888289B2, “Heterocyclylethylbenzamide derivatives” (Bayer Cropscience AG, priority 2005, dated 2011)

System: Alternaria brassicae
Test: In vivo test on Alternaria brassicae (radish plants, preventive spray)
Details: radish plants (Pernot variety), contaminated 24 hours after treatment, grading 6 to 7 days after contamination vs control plants, read-out: protection (good (at least 50%) to total); for pest or weed control at 110 ppm: dose of 110 ppm; for pest or weed control at 330 ppm: dose of 330 ppm
Description: The active ingredient tested is prepared by potter homogenisation in a concentrated suspension type formulation at 100 g/l. This suspension is then diluted with water to obtain the desired active material concentration.
Radish plants (Pernot variety) in starter cups, sown on a 50/50 peat soil-pozzolana substrate and grown at 18-20° C., are treated at the cotyledon stage by spraying with the aqueous suspension described above.
Plants, used as controls, are treated with an aqueous solution not containing the active material.
After 24 hours, the plants are contaminated by spraying them with an aqueous suspension of Alternaria brassicae spores (40,000 spores per cm^3). The spores are collected from a 12-13-day-old culture.
The contaminated radish plants are incubated for 6-7 days at about 18° C., under a humid atmosphere.
Grading is carried out 6 to 7 days after the contamination, in comparison with the control plants.

| SMILES | pest or weed control at 110 ppm [%] | pest or weed control at 330 ppm [%] |
| --- | --- | --- |
| Cc1ccsc1CCNC(=O)c1ccccc1C(F)F [Compound A-1] | ≥ 50 |  |
| O=C(NCCc1sccc1Cl)c1ccccc1C(F)(F)F [Compound A-5] |  | ≥ 50 |
| O=C(NCCc1sccc1Cl)c1ccccc1Br [Compound A-7] |  | ≥ 50 |
| Cc1csc(CCNC(=O)c2ccccc2C(F)(F)F)n1 [Compound B-1] |  | ≥ 50 |
| Cc1nc(CCNC(=O)c2ccccc2C(F)(F)F)sc1C [Compound B-2] | ≥ 50 |  |
| Cc1nc(C)c(CCNC(=O)c2ccccc2Br)s1 [Compound C-2] |  | ≥ 50 |
| Cn1cc(CCNC(=O)c2ccccc2C(F)(F)F)c(C(F)(F)F)n1 [Compound D-1] |  | ≥ 50 |
| Cn1cc(CCNC(=O)c2ccccc2Cl)c(C(F)(F)F)n1 [Compound D-4] |  | ≥ 50 |
| Cc1ccccc1C(=O)NCCc1cn(C)nc1C(F)(F)F [Compound D-5] |  | ≥ 50 |
| COc1cc(C(F)(F)F)nn1CCNC(=O)c1ccccc1Br [Compound E-1] | ≥ 50 |  |
